According to patent US20120115754A1, “METHOD FOR DIAGNOSING AND/OR TYPING RENAL CELL CARCINOMA” (priority 2009, published 2012):

How the values were obtained:
[1] = system: tumor kidney (RCC) tissue lysate, tyrosine kinase activity; test: Peptide microarray (PamChip) kinase activity profiling of tumor kidney lysate with kinase inhibitor added to the lysate; type: biochemical, human
Protocol: (§1) Both normal and tumor kidney tissue were derived from resection material immediately after surgery. These tissues were snap-frozen and were stored at −85° C. The tissues were cut in slices of 10 μm and stored. For protein extraction 6 slices were lysed in 100 μL of Mammalian Protein Extraction Buffer (M-PER), a lysis buffer containing HALT protease and phosphatase inhibitors, for 60 minutes on ice. The protein concentration was determined for each sample and for the analysis on a peptide microarray comprising 144 peptides typically 5 μg of protein was used. […]
(§2) To assess the effect of a kinase inhibitor, the kinase inhibitors sorafinib or sunitinib were added to the lysate before application onto the peptide microarray. During 60 cycles of pumping the lysate reaction mixture through the array, peptide phosphorylation was detected by the fluorescently labelled PY20 anti-phosphotyrosine antibody present in the lysate reaction mixture. Real time data were obtained by measuring fluorescence of the bound anti-phosphotyrosine antibody after each 5 cycles. […] Signals for each spot on the image were quantified. Image quantification and data processing was conducted with dedicated PamGene software (Evolve and Bionavigator). […]

[2] = system: normal kidney tissue (NK) lysate, tyrosine kinase activity; test: Peptide microarray (PamChip) kinase activity profiling of normal kidney lysate with kinase inhibitor added to the lysate; type: biochemical, human
Protocol: as §1, §2

Structure (SMILES): CNC(=O)c1cc(Oc2ccc(NC(=O)Nc3ccc(Cl)c(C(F)(F)F)c3)cc2)ccn1 [sorafinib, sorafenib]
- phosphorylation pattern compared to the control (DMSO) ([1]; lysate of tumor kidney (RCC) tissue of one patient, inhibitor pipetted into lysate, FIG. 4 heatmap): decreased phosphorylation pattern
- inhibition of peptide phosphorylation, peptides indicated by downwards arrows ([1]; tumor tissue, on-chip treatment, in comparison to other peptides, FIG. 4): highly inhibited
- phosphorylation pattern compared to the control (DMSO) ([2]; lysate of normal kidney tissue (NK) of one patient, inhibitor pipetted into lysate, FIG. 4 heatmap): decreased phosphorylation pattern
- inhibition of peptide phosphorylation, peptides indicated by upward arrows ([2]; normal tissue, on-chip treatment, candidate markers for off-target effects, FIG. 4): show inhibition
